The series can be described thus: Thermo Scientific Acclaim RSLC 120 C18, 100 × 2.1 mm, 2.2 µm, 30 °C, 0.2 to 0.48 mL/min, estimated dead time 1.1 min; A: 90% water + 10% methanol + 5 mM ammonium acetate; B: methanol + 5 mM ammonium acetate; gradient (min/%B) 0.1/1 3/39 14/99.9 16/99.9. To be noted: stereoisomer not certain.
Regarding `O=c1[nH]cnc2[nH]ncc12`, the LC retention time is 3.04 min.
`Cc1occc1C(=O)Nc1ccccc1`: the LC retention time was 7.54 min.
Turning to `Nc1nc2ccccc2[nH]1`, the LC retention time is 5.11 min.
As to `Cc1nnc(-c2ccccc2)c(=O)n1N`, the LC retention time was 5.22 min.
With `CC(C)NCC(O)COc1ccc(CC(=O)O)cc1` (stereo not given), the LC retention time is 3.58 min.
With `S=c1[nH]c2ccccc2s1`, the LC retention time is 6.58 min.
For `CC(C)(C)NCC(O)c1ccc(O)c(CO)c1` (stereo not given), the LC retention time is 4.06 min.
In the case of `CCNc1nc(NCC)[nH]c(=O)n1`, the LC retention time is 5.56 min.
`COc1cc(C=CC(=O)CC(=O)C=Cc2ccc(O)c(OC)c2)ccc1O`: the LC retention time was 10 min.
For `CC(C)c1nc(CN(C)C(=O)NC(C(=O)NC(Cc2ccccc2)CC(O)C(Cc2ccccc2)NC(=O)OCc2cncs2)C(C)C)cs1` (stereo not given), the LC retention time is 12.5 min.
In the case of `CC1CCCCC1NC(=O)Nc1ccccc1` (stereo not given), the LC retention time is 9.15 min.
The same measure for `CNC(=O)ON=C(C)C(C)S(C)(=O)=O` (stereo not given): 3.67 min; for `CC(C)(c1ccc(O)cc1)c1ccc(O)cc1`: 8.49 min.
Consider `COC(=O)NC(=S)Nc1ccccc1NC(=S)NC(=O)OC`, for which the LC retention time was 6.88 min.
Regarding `CC12CCC3c4cc(O)c(O)cc4CCC3C1CCC2=O` (stereo not given), the LC retention time is 9.74 min.
Regarding `CCCN(CCC)c1c([N+](=O)[O-])cc(S(N)(=O)=O)cc1[N+](=O)[O-]`, the LC retention time is 10.2 min.
As to `CCCCCc1cc(O)c2c(c1)OC(C)(C)C1CCC(C(=O)O)=CC21` (stereo not given), the LC retention time is 12 min.
Under `Cc1ccc2n[nH]nc2c1` stands 6.56 min; under `Cc1nnc(-c2ccccc2)c(=O)[nH]1`, 5.72 min.
With `Cc1ccc(C)c(OCCCC(C)(C)C(=O)O)c1`, the LC retention time was 10.9 min.
Turning to `CCCC(C)C1(CC)C(=O)NC(=S)NC1=O` (stereo not given), the LC retention time was 8.63 min.
Take `CCc1ccc(CCOc2ccc(CC3SC(=O)NC3=O)cc2)nc1` (stereo not given): the LC retention time is 10.6 min.
Regarding `C=C(C)C1Cc2c(ccc3c2OC2COc4cc(OC)c(OC)cc4C2C3=O)O1` (stereo not given), the LC retention time is 10.4 min.
As to `C=C1CC23CC1(O)CCC2C12C=CC(O)C(C)(C(=O)O1)C2C3C(=O)O` (stereo not given), the LC retention time is 4.42 min.
For the compound `CCC1(CCC(C)C)C(=O)NC(=O)NC1=O`, the LC retention time was 7.9 min.
Turning to `CC(C)(C)NCC(O)COc1cccc2c1CC(O)C(O)C2` (stereo not given), the LC retention time was 5.12 min.
Regarding `CC(=O)CC(c1ccccc1)c1c(O)c2ccccc2oc1=O` (stereo not given), the LC retention time is 6.56 min.
For the compound `CCN1CCCC1CNC(=O)c1cc(S(=O)(=O)CC)c(N)cc1OC` (stereo not given), the LC retention time was 5.08 min.
Turning to `O=[N+]([O-])c1ccc(O)c([N+](=O)[O-])c1`, the LC retention time was 4.5 min.
For the compound `CNC(=O)C(=NOC)c1ccccc1COc1cc(C)ccc1C`, the LC retention time was 10.6 min.
Under `CC12C=CC(=O)C=C1CCC1C2C(=O)CC2(C)C1CCC2(O)C(=O)CO` (stereo not given) stands 8.31 min; under `CC(C(=O)O)c1ccc(C2CCCCC2)c2ccccc12` (stereo not given), 11.2 min; under `CC1=C(C(=O)Nc2ccccc2)SCCO1`, 7.42 min.
Under `O=C(O)c1cc(-c2ccccc2)nc2ccccc12` stands 5.89 min.
Consider `O=C1NS(=O)(=O)c2ccccc21`, for which the LC retention time was 3.09 min.
Consider `CC(C)c1ccc(NC(N)=O)cc1`, for which the LC retention time was 8.81 min.
With `CC(C)N(C(=O)C(=O)O)c1ccccc1`, the LC retention time was 5.57 min.
The same measure for `C=CCC1(C(C)C#CCC)C(=O)NC(=O)N(C)C1=O` (stereo not given): 9.02 min.
As to `CC(C)C1(C)N=C(c2ncccc2C(=O)O)NC1=O` (stereo not given), the LC retention time is 3.1 min.
On to `O=C(O)c1ccccc1S`, for which the LC retention time is 5.44 min.
Regarding `Cc1cnc(NC(=O)C2=C(O)c3ccccc3S(=O)(=O)N2C)s1`, the LC retention time was 6.41 min.
Under `COc1ccc(Oc2ccc(NC(=O)N(C)C)cc2)cc1` stands 8.39 min; under `CC1(C)CC1C(=O)NC(=CCCCCSCC(N)C(=O)O)C(=O)O` (stereo not given), 4.91 min; under `CN(C)CCC=C1c2ccccc2COc2ccc(CC(=O)O)cc21`, 7.69 min.
Turning to `Oc1ccccc1-c1ccccc1`, the LC retention time is 9.09 min.
`CC12CCC(O)CC1CCC1C2CCC2(C)C1CCC2(C)O` (stereo not given): the LC retention time is 14 min.
Consider `O=C(O)C(c1ccccc1)C1CCCCN1` (stereo not given), for which the LC retention time is 5.27 min.
Consider `CC(Cc1ccc(O)cc1)NCC(O)c1cc(O)cc(O)c1` (stereo not given), for which the LC retention time is 4.33 min.
Consider `COC(=O)c1ccccc1CS(=O)(=O)NC(=O)Nc1nc(OC)cc(OC)n1`, for which the LC retention time is 7.66 min.
In the case of `O=c1[nH]c(=O)[nH]c(=O)[nH]1`, the LC retention time is 1.34 min.
Turning to `CC[N+]([O-])(CC)CC(=O)Nc1c(C)cccc1C`, the LC retention time is 6.56 min.
`CC12C=CC3=C4CCC(=O)C=C4CCC3C1CCC2O` (stereo not given): the LC retention time is 9.17 min.
As to `COC(=O)C(Cc1ccccc1)NC(=O)C(N)CC(=O)O` (stereo not given), the LC retention time is 4.98 min.
In the case of `Cc1cn(C2CC(N=[N+]=[N-])C(CO)O2)c(=O)[nH]c1=O` (stereo not given), the LC retention time was 5.06 min.
The same measure for `CC1(C)SC2C(NC(=O)C(N)c3ccccc3)C(=O)N2C1C(=O)O` (stereo not given): 4.46 min; for `CC(=O)Nc1ccc(S(=O)(=O)Nc2ncccn2)cc1`: 3.76 min; for `CC(C(=O)O)c1ccc(C(=O)c2cccs2)cc1` (stereo not given): 8.96 min.
For the compound `Cc1cccc(C)c1NC(=O)C1CCCCN1C` (stereo not given), the LC retention time was 7.49 min.
Consider `CSc1nc(N=[N+]=[N-])nc(NC(C)C)n1`, for which the LC retention time was 9.67 min.
The same measure for `C=CC(=O)NC(C)(C)CS(=O)(=O)O`: 2.5 min.
Under `CC(C(=O)O)c1cccc(Oc2ccccc2)c1` (stereo not given) stands 6.79 min; under `CC(=O)Nc1ccc(S(=O)(=O)Nc2nc(C)cc(C)n2)cc1`, 5.06 min; under `O=C1NC(=O)C2CC=CCC12` (stereo not given), 4.36 min.
`CCOP(=O)(NC(C)C)Oc1ccc(SC)c(C)c1` (stereo not given): the LC retention time was 10.4 min.
As for `CC(C)(C)CC(C)(C)c1ccc(O)cc1`, the LC retention time was 12.3 min.
Consider `Cc1ccccc1C(=O)Nc1cccc(OC(C)C)c1`, for which the LC retention time is 9.58 min.
For the compound `CNCC(O)c1ccc(O)cc1` (stereo not given), the LC retention time is 2.26 min.
Turning to `CC(=O)Nc1nnc(S(N)(=O)=O)s1`, the LC retention time is 3.24 min.
In the case of `COCCN(C(=O)C(=O)O)c1c(C)cccc1C`, the LC retention time is 6.07 min.
For the compound `CNC(=O)ON=C(C)C(C)S(C)=O` (stereo not given), the LC retention time is 3.36 min.
As for `CCc1cccc(CC)c1N(COC)C(=O)CS(=O)(=O)O`, the LC retention time was 8.02 min.
On to `CCOP(=S)(OCC)SCS(=O)(=O)C(C)(C)C`, for which the LC retention time was 8.98 min.
Regarding `CCNC(=O)NC(=O)C(C#N)=NOC`, the LC retention time was 5.58 min.
For the compound `CNCC(c1ccc(OC)cc1)C1(O)CCCCC1` (stereo not given), the LC retention time was 6.12 min.
The same measure for `CC(C)CC(C)Nc1ccc(Nc2ccccc2)cc1` (stereo not given): 11.8 min.
Under `CC(=O)Nc1cc(S(=O)(=O)O)cc2cc(S(=O)(=O)O)c(N=Nc3ccccc3)c(O)c12` stands 4.56 min; under `CCCCC1C(=O)N(c2ccccc2)N(c2ccc(O)cc2)C1=O` (stereo not given), 7.73 min; under `Cc1c(N(C)CS(=O)(=O)O)c(=O)n(-c2ccccc2)n1C`, 4.89 min.
Regarding `COc1ccc(-c2ccccc2)cc1NNC(=O)OC(C)C`, the LC retention time was 9.82 min.
Consider `CC(C)C1(C)N=C(c2nc3ccccc3cc2C(=O)O)NC1=O` (stereo not given), for which the LC retention time was 4.85 min.
`CC1(c2ccc(Oc3ccccc3)cc2)OC(=O)N(Nc2ccccc2)C1=O` (stereo not given): the LC retention time is 11 min.
Take `CSc1nnc(C(C)(C)C)c(=O)[nH]1`: the LC retention time is 8.04 min.
The same measure for `CCOS(=O)(=O)O`: 1.52 min; for `CCOC(=O)C1=CC(OC(CC)CC)C(NC(C)=O)C(N)C1` (stereo not given): 8.79 min.
Consider `CSc1nnc(C(C)(C)C)c(=O)n1N`, for which the LC retention time was 7.04 min.
`COC(=O)Nc1nc2ccccc2[nH]1`: the LC retention time is 5.8 min.
For `COC(=O)NC(C(=O)NC(Cc1ccccc1)C(O)CN(Cc1ccc(-c2ccccn2)cc1)NC(=O)C(NC(=O)OC)C(C)(C)C)C(C)(C)C` (stereo not given), the LC retention time was 12.4 min.
Under `CC1CC(=O)CC2CCC3C4CCC(O)C4(C)CCC3C12C` (stereo not given) stands 14.4 min.
For `COP(=O)(NC(C)=O)SC` (stereo not given), the LC retention time was 3.09 min.
Turning to `O=[N+]([O-])c1cc(C2CCCCC2)c(O)c([N+](=O)[O-])c1`, the LC retention time was 9.19 min.
Take `CC12CCC3c4ccc(O)cc4CCC3C1CCC2=O` (stereo not given): the LC retention time was 10.8 min.
Take `COCCCOc1cc(CC(CC(N)C(O)CC(C(=O)NCC(C)(C)C(N)=O)C(C)C)C(C)C)ccc1OC` (stereo not given): the LC retention time was 10.9 min.
Consider `CNC(=C[N+](=O)[O-])NCCSCc1ccc(C[N+](C)(C)[O-])o1`, for which the LC retention time is 3.98 min.
The same measure for `COCCN(C(=O)CS(=O)(=O)O)c1c(C)cccc1C`: 6.16 min; for `CCCCC1=NC2(CCCC2)C(=O)N1Cc1ccc(-c2ccccc2-c2nn[nH]n2)cc1`: 10.1 min.
Take `COc1ccc(C(=O)c2ccccc2O)cc1`: the LC retention time is 12.2 min.
With `CNC(=C[N+](=O)[O-])NCCS(=O)Cc1ccc(CN(C)C)o1` (stereo not given), the LC retention time was 3.93 min.
With `CC(C)C1CCC(C(=O)NC(Cc2ccccc2)C(=O)O)CC1` (stereo not given), the LC retention time was 11.4 min.
Under `CCOP(=S)(OCC)Oc1cnccn1` stands 8.03 min; under `Cc1cc(C)cc(C(=O)N(NC(=O)c2ccc3c(c2C)CCCO3)C(C)(C)C)c1`, 9.91 min.

Values taken from the RepoRT retention time repository.
